Results published in patent publication US6750227B2, “Method of treatment of neuropsychiatric symptoms in patients with Alzheimer's Disease” (SmithKline Beecham Corporation, priority 1998, dated 2004).
Read-outs that look alike come from different tables or passages of the source.

Experiments:
Male Sprague Dawley rats [1] = experiment: Catalepsy in the rat; settings: 90 min after dosing, doses up to 0.3 mg/kg po
[2] = tested on: patients with Alzheimer's Disease; settings: for Agitation score / Anxiety score / Apathy score / Delusions score / Depression score / Disinhibition score / Elation score / Hallucinations score / Irritability score / Wandering score / Total NPI score: All Patients, negative = improvement; for NPI total score, country adjusted difference vs placebo: all patients
Protocol: A retrospective meta-analysis on the combined data was then conducted and effects on individual symptoms assessed.
Country adjusted differences were calculated as the difference between the adjusted least square means; allowing estimates from each country to be combined in a manner whereby the most precise estimate is given more weight.
Following this analysis, a further retrospective analysis was conducted on the subgroup of patients who presented with severe behavioural disturbance at the start of the study (defined as a baseline NPI score>20). Country adjusted differences were calculated as the difference between the adjusted least square means; allowing estimates from each country to be combined in a manner whereby the most precise estimate is given more weight.

Male Sprague Dawley rats [3] = settings: rat, 30 min pretreatment
Male Sprague Dawley rats [4] = settings: rat, in vivo, 2.8 mg/kg, 90 min
[5] = Patients with baseline NPI >20, 25 μg bid
[6] = Patients with baseline NPI >20, 50 μg uid

Structure (SMILES): CO/N=C(\C#N)[C@H]1CN2CCC1CC2 [Compound (I), [R-(Z)]-α-(methoxyimino)-α-(1-azabicyclo[2.2.2]oct-3-yl)acetonitrile]
- catalepsy (Male Sprague Dawley rats [1]): did not produce catalepsy
- Agitation score ([2]; 25 μg bid): −0.5
- Anxiety score ([2]; 25 μg bid): −0.9
- Apathy score ([2]; 25 μg bid): −1.1
- Delusions score ([2]; 25 μg bid): −0.7
- Depression score ([2]; 25 μg bid): −0.3
- Disinhibition score ([2]; 25 μg bid): −0.7
- Elation score ([2]; 25 μg bid): −1.1
- Hallucinations score ([2]; 25 μg bid): −1.5
- Irritability score ([2]; 25 μg bid): −0.4
- Wandering score ([2]; 25 μg bid): −1.2
- Total NPI score ([2]; 25 μg bid, p 0.064 vs placebo): +0.7
- Agitation score ([2]; 50 μg uid): −0.6
- Anxiety score ([2]; 50 μg uid): −1.5
- Apathy score ([2]; 50 μg uid): −1.5
- Delusions score ([2]; 50 μg uid): −0.6
- Depression score ([2]; 50 μg uid): −0.6
- Disinhibition score ([2]; 50 μg uid): −0.7
- Elation score ([2]; 50 μg uid): −1.9
- Hallucinations score ([2]; 50 μg uid): −0.7
- Irritability score ([2]; 50 μg uid): −0.9
- Wandering score ([2]; 50 μg uid): −1.0
- Total NPI score ([2]; 50 μg uid, p 0.026 vs placebo): +0.3
- Agitation endpoint score: change from baseline [2, 5]: 0
- Anxiety endpoint score: change from baseline [2, 5]: −1.9
- Apathy endpoint score: change from baseline [2, 5]: −1.4
- Delusions endpoint score: change from baseline [2, 5]: −0.8
- Depression endpoint score: change from baseline [2, 5]: 0
- Disinhibition endpoint score: change from baseline [2, 5]: −0.8
- Elation endpoint score: change from baseline [2, 5]: −1.7
- Hallucinations endpoint score: change from baseline [2, 5]: −2.1
- Irritability endpoint score: change from baseline [2, 5]: −0.7
- Wandering endpoint score: change from baseline [2, 5]: −1.7
- Total NPI endpoint score: change from baseline ([2]; Patients with baseline NPI >20, 25 μg bid, p 0.043 vs placebo): −4.0
- Agitation endpoint score: change from baseline [2, 6]: −0.6
- Anxiety endpoint score: change from baseline [2, 6]: −1.8
- Apathy endpoint score: change from baseline [2, 6]: −1.6
- Delusions endpoint score: change from baseline [2, 6]: −1.4
- Depression endpoint score: change from baseline [2, 6]: −1.1
- Disinhibition endpoint score: change from baseline [2, 6]: −1.1
- Elation endpoint score: change from baseline [2, 6]: −2.5
- Hallucinations endpoint score: change from baseline [2, 6]: −1.4
- Irritability endpoint score: change from baseline [2, 6]: −1.2
- Wandering endpoint score: change from baseline [2, 6]: −1.3
- Total NPI endpoint score: change from baseline ([2]; Patients with baseline NPI >20, 50 μg uid, p 0.019 vs placebo): −6.1
- NPI total score, country adjusted difference vs placebo ([2]; 50 μg uid, p=0.026, 95% CI −4.1, −0.3): −2.1
- NPI total score, country adjusted difference vs placebo ([2]; 25 kg bid (so in the source), p=0.064, 95% CI −3.8, 0.1): −1.8
- total NPI score, country adjusted difference vs placebo ([2]; patients with baseline NPI>20, 25 μg bid, p=0.043, 95% CI −14.1, −0.2): −7.18
- total NPI score, country adjusted difference vs placebo ([2]; patients with baseline NPI>20, 50 μg uid, p=0.019, 95% CI −14.4, −1.3): −7.86
- dose at which reversal of amphetamine-induced hyperactivity reached significance (P<0.01) (Male Sprague Dawley rats [3]; 0.01-0.3 mg/kg po): 0.3 mg/kg
- ED50 for reversal of amphetamine-induced hyperactivity (Male Sprague Dawley rats [3]; po, 95% CI=0.14-0.75): 0.25 mg/kg

Structure (SMILES): O=C(CCCN1CCC(O)(c2ccc(Cl)cc2)CC1)c1ccc(F)cc1 [haloperidol, Haloperidol]
- rats in which catalepsy was produced (Male Sprague Dawley rats [4]): 6 of 6
